Source: patent publication US20110124701A1, “USE OF HDAC INHIBITORS FOR THE TREATMENT OF LYMPHOMAS” (NOVARTIS AG, priority 2006, published 2011)

Tests used:
HuT102 CTCL cell line = test: Monolayer growth inhibition assay (MTT/MTS), HuT102; type: cell-based, human
Procedure: (§1) Cell lines derived from human CTCL (mycosis fungoides), HUT78, HUT102, HH and MJ were treated with Compound III (LBH589) to assess their sensitivity to the drug. Cells were generally maintained in artificial media, such as Dubelco Modified Eagle Medium (DMEM) or RPMI and supplemented with various levels up to 15% fetal bovine serum. The antibiotics penicillin 100 units/mL) and streptomycin (100 μg/mL) were added to prevent bacterial contamination and maintained at 37° C. and 5% CO2 environment in a sterile incubator.
(§2) The MTT is a colorimetric assay to determine the cell proliferation rate. The yellow tetrazolium MTT (3-(4,5-dimethylthiazolyl-2)-2,5-diphenyltetrazolium bromide) is reduced by metabolically active cells, in part by the action of dehydrogenase enzymes, to generate reducing equivalents, such as NADH and NADPH. The resulting intracellular purple formazan can be solubilized and quantified by spectrophotometric means. The signals produced is directly proportional to the cell numbers. Describing the MTT assay in detail, experiments were done using 6-point or 9-point drug titrations in multi-well tissue culture dishes, with outer rows left empty. Cells were suspended in complete media at densities of between 10^3 and 10^4 cell/mL, respectively, and added per well. The appropriate medium (200 μL) was then added. Twenty-four hours later, 10 μL of MTS solution, were added to one plates to determine the activity at the time of compound addition (T0). This plate was incubated at 37° C. for 4 hours and the optical density was measured on a Molecular Devices Thermomax at 490 nm using the Softmax program. The T0 plate served as a reference for initial activity at the beginning of the experiment.
(§3) Compound addition began 24 hours after seeding, the same time as the T0 determination. […] Each of the six dilutions were added in triplicate and complete medium was added to the empty outer rows without cells. The compounds were added to the plates singly or in combination with Compound III (LBH589). The plates were incubated at 37° C. for 72 hours from seeding. The MTS solution was added (as for the T0 plate) and read four hours later. In order to analyze the data, the average value of media alone (background) was subtracted from each experimental well and the triplicate values were averaged for each compound dilution. The following formulas were used to calculate percent growth.
(§4) If X>T0, % Growth=100×((X−T0)/(GC−T0))
(§5) If X<T0, % Growth=100×(X−T0)/T0)
(§6) T0=average value of T0 minus background GC=average value of untreated cells (in triplicate) minus background X=average value of compound treated cells (in triplicate) minus background […]

MJ CTCL cell line = test: Monolayer growth inhibition assay (MTT/MTS), MJ; type: cell-based, human
Procedure: as §1, §2, §3, §4, §5, §6

HuT78 CTCL cell line = test: Monolayer growth inhibition assay (MTT/MTS), HuT78; type: cell-based
Procedure: (§7) The antibiotics penicillin 100 units/mL) and streptomycin (100 μg/mL) were added to prevent bacterial contamination and maintained at 37° C. and 5% CO2 environment in a sterile incubator.
as §2, with “This plate was incubated at 37° C. for 4 hours and the optical density was measured on a Molecular Devices Thermomax at 490 nm using the Softmax program.” left out
as §3, with “The compounds were added to the plates singly or in combination with Compound III (LBH589).” left out
as §4, §5, §6

HH CTCL cell line = test: Monolayer growth inhibition assay (MTT/MTS), HH; type: cell-based
Procedure: as §7
as §2, with “This plate was incubated at 37° C. for 4 hours and the optical density was measured on a Molecular Devices Thermomax at 490 nm using the Softmax program.” left out
as §3, with “The compounds were added to the plates singly or in combination with Compound III (LBH589).” left out
as §4, §5, §6

[1] = tested on: HH CTCL mouse tumor xenografts; test: HH CTCL tumor xenograft in mice; type: in vivo; conditions: 2 weeks
Procedure: Additionally, Compound III (LBH589) induced the regression of the HH CTCL mouse tumor xenografts in vivo. Mice were implanted with the HH CTCL cell lines and after tumors have grown to 150 mm^3, the mice were separated into four groups each containing eight mice. The groups of mice were dosed intravenously with vehicle, 5 mg/kg, 10 mg/kg, or 15 mg/kg daily.

advanced-stage CTCL = test: Phase I study in patients with advanced-stage CTCL; type: in vivo, human
Procedure: Adult patients with histologically-confirmed, advanced solid tumors or non-Hodgkin's lymphoma including CTCL whose disease has progressed despite standard therapy or for whom no standard therapy exists, will be enrolled onto arms 1-3.
Patients with advanced-stage CTCL were entered into a Phase I study. All patients had progressed following prior systemic therapy. Patients were entered into the DLT, […], dose level 30 mg M,W,F cohort (n=1) or the subsequent MTD, maximum tolerated dose, dose level 20 mg M,W,F weekly (n=8). Compound (III) was continued until disease progression or unacceptable toxicity. The first three patients had 3 mm punch biopsies from CTCL-involved skin lesions performed at 0, 4, 8 and 24 hours after administration, which were subjected to gene expression profiling. Microarray analysis was performed using the Affymetrix U133 plus 2.0 GeneChip that has 47,000 probesets and interrogates 38,500 genes.

[2] = of 9 CTCL patients evaluable for response, 20 or 30 mg M,W,F

## Cc1[nH]c2ccccc2c1CCNCc1ccc(/C=C/C(=O)NO)cc1 [Compound III, N-hydroxy-3-[4-[[[2-(2-methyl-1H-indol-3-yl)-ethyl]-amino]methyl]phenyl]-2E-2-propenamide]
HuT102 CTCL cell line; HUT102 cells
  sensitivity (IC50) in words: extreme subnanomolar sensitivity
HuT102 CTCL cell line; HUT102 cells, HTLV infection
  sensitivity to induced cell death in words: insensitive
HuT102 CTCL cell line; Homo sapiens, HuT-102, 72 h, read-out: IC50 (concentration required to inhibit cell growth by 50%)
  IC50: 0.4 nM
HuT102 CTCL cell line; HuT102 cells, 72 hours
  LD50 (concentration required to reduce cell number to 50% of the original inoculum): >10 µM
MJ CTCL cell line; Homo sapiens, 72 h, read-out: IC50 (concentration required to inhibit cell growth by 50%)
  IC50: 0.3 nM
MJ CTCL cell line; MJ cells
  sensitivity (IC50) in words: extreme subnanomolar sensitivity
MJ CTCL cell line; MJ cells, 72 hours
  LD50 (concentration required to reduce cell number to 50% of the original inoculum): >10 µM
MJ CTCL cell line; MJ cells, HTLV infection
  sensitivity to induced cell death in words: insensitive
HuT78 CTCL cell line; HUT78 cells
  sensitivity (IC50) in words: extreme subnanomolar sensitivity
HuT78 CTCL cell line; Homo sapiens, HuT78, 72 h, read-out: IC50 (concentration required to inhibit cell growth by 50%)
  IC50: 0.2 nM
HuT78 CTCL cell line; HuT78 cells, 72 hours
  LD50 (concentration required to reduce cell number to 50% of the original inoculum): 0.003 µM
HH CTCL cell line; HH cells
  sensitivity (IC50) in words: extreme subnanomolar sensitivity
HH CTCL cell line; HH cells, 72 hours
  LD50 (concentration required to reduce cell number to 50% of the original inoculum): 0.0025 µM
HH CTCL cell line; Homo sapiens, HH, 72 h, read-out: IC50 (concentration required to inhibit cell growth by 50%)
  IC50: 0.7 nM
[1]; 5 mg/kg daily iv
  effect on tumor growth: tumor growth inhibition
[1]; 10 mg/kg daily iv
  effect on tumor growth: almost complete tumor regression
[1]; 15 mg/kg daily iv
  effect on tumor growth: almost complete tumor regression
advanced-stage CTCL; M,W,F weekly, CTCL patients
  MTD, maximum tolerated dose, dose level: 20 mg
advanced-stage CTCL; discontinued after 10 doses due to Grade III diarrhea
  time to progression of a responding patient with CR: 8 m
advanced-stage CTCL; human, in vivo
  DLT dose level: 30 mg
advanced-stage CTCL; [2]
  patients achieving stable disease (SD) with ongoing improvement: 1 patients
  patients attaining a complete response (CR): 2 patients
  patients attaining a partial response (PR): 2 patients
  patients progressed on treatment (PD): 4 patients
